# How the values were obtained:
# ragweed [1] = assay: Test C postemergence; assay type: in vivo, Ambrosia artemisiifolia; details: 10 days
# Procedure, shortened: (§1)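 Seeds in loam–sand blend received preemergence directed soil spray of test chemicals in non-phytotoxic solvent with surfactant; postemergence treatment was applied at one- to two-leaf stage (2–10 cm). After 10 days in greenhouse, injury rated visually versus untreated controls, 0 (no effect) to 100 (complete control).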
# oat, wild [2] = assay: Test C postemergence; assay type: in vivo, Avena fatua; details: 10 days
# Procedure, shortened: as §1
# corn [3] = assay: Test C postemergence; assay type: in vivo, Zea mays; details: 10 days
# Procedure, shortened: as §1
# ducksalad = assay: Test D flooded paddy test; assay type: in vivo, Heteranthera limosa; details: 250 g ai/ha, applied to paddy water, visual rating after 13 to 14 days, scale 0 to 100 (0 no effect, 100 complete control)
# Procedure, shortened: (§2)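 At the 2-leaf stage, floodwater 3 cm deep received the test compound; that depth persisted throughout. Plants scored visually 13 to 14 days on, 0 (no effect) to 100 (complete control), dash indicating no result.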
# kochia [4] = assay: Test C preemergence; assay type: in vivo, Bassia scoparia; details: 0 to 100 scale (0 no effect, 100 complete control)
# Procedure, shortened: as §1
# ryegrass, Italian [5] = assay: Test C preemergence; assay type: in vivo, Lolium multiflorum; details: 0 to 100 scale (0 no effect, 100 complete control)
# Procedure, shortened: as §1
# blackgrass [6] = assay: Test C postemergence; assay type: in vivo, Alopecurus myosuroides; details: 10 days
# Procedure, shortened: as §1
# horseweed = assay: Test C postemergence; assay type: in vivo, Erigeron canadensis; details: 10 days
# Procedure, shortened: as §1
# barnyardgrass [7] = assay: Test C postemergence; assay type: in vivo, Echinochloa crusgalli; details: 10 days
# Procedure, shortened: as §1
# sedge, umbrella = assay: Test D flooded paddy test; assay type: in vivo, Cyperus difformis; details: 250 g ai/ha, applied to paddy water, visual rating after 13 to 14 days, scale 0 to 100 (0 no effect, 100 complete control)
# Procedure, shortened: as §2
# green foxtail = assay: Test C preemergence; assay type: in vivo, Setaria viridis; details: 0 to 100 scale (0 no effect, 100 complete control)
# Procedure, shortened: as §1
# corn [8] = assay: Test C preemergence; assay type: in vivo, Zea mays; details: 0 to 100 scale (0 no effect, 100 complete control)
# Procedure, shortened: as §1
# pigweed, palmer [9] = assay: Test C postemergence; assay type: in vivo, Amaranthus palmeri; details: 10 days
# Procedure, shortened: as §1
# galium = assay: Test C postemergence; assay type: in vivo, Galium aparine; details: 10 days
# Procedure, shortened: as §1
# soybean [10] = assay: Test C postemergence; assay type: in vivo, Glycine max; details: 10 days
# Procedure, shortened: as §1
# soybean [11] = assay: Test C preemergence; assay type: in vivo, Glycine max; details: 0 to 100 scale (0 no effect, 100 complete control)
# Procedure, shortened: as §1
# pigweed, palmer [12] = assay: Test C preemergence; assay type: in vivo, Amaranthus palmeri; details: 0 to 100 scale (0 no effect, 100 complete control)
# Procedure, shortened: as §1
# blackgrass [13] = assay: Test C preemergence; assay type: in vivo, Alopecurus myosuroides; details: 0 to 100 scale (0 no effect, 100 complete control)
# Procedure, shortened: as §1
# wheat [14] = assay: Test C preemergence; assay type: in vivo, Triticum aestivum; details: 0 to 100 scale (0 no effect, 100 complete control)
# Procedure, shortened: as §1
# wheat [15] = assay: Test C postemergence; assay type: in vivo, Triticum aestivum; details: 10 days
# Procedure, shortened: as §1
# ryegrass, Italian [16] = assay: Test C postemergence; assay type: in vivo, Lolium multiflorum; details: 10 days
# Procedure, shortened: as §1
# rice = assay: Test D flooded paddy test; assay type: in vivo, Oryza sativa; details: 250 g ai/ha, applied to paddy water, visual rating after 13 to 14 days, scale 0 to 100 (0 no effect, 100 complete control)
# Procedure, shortened: as §2
# ragweed [17] = assay: Test C preemergence; assay type: in vivo, Ambrosia artemisiifolia; details: 0 to 100 scale (0 no effect, 100 complete control)
# Procedure, shortened: as §1
# kochia [18] = assay: Test C postemergence; assay type: in vivo, Bassia scoparia; details: 10 days
# Procedure, shortened: as §1
# oat, wild [19] = assay: Test C preemergence; assay type: in vivo, Avena fatua; details: 0 to 100 scale (0 no effect, 100 complete control)
# Procedure, shortened: as §1
# barnyardgrass [20] = assay: Test D flooded paddy test; assay type: in vivo, Echinochloa crus-galli; details: 250 g ai/ha, applied to paddy water, visual rating after 13 to 14 days, scale 0 to 100 (0 no effect, 100 complete control)
# Procedure, shortened: as §2
# barnyardgrass [21] = assay: Test C preemergence; assay type: in vivo, Echinochloa crusgalli; details: 0 to 100 scale (0 no effect, 100 complete control)
# Procedure, shortened: as §1
# [22] = 125 g ai/ha, postemergence, 0 to 100 scale, 0 no effect, 100 complete control
# [23] = Postemergence, 500 g ai/ha, visual 0 to 100 scale (0 no effect, 100 complete control)
# [24] = Preemergence, 500 g ai/ha, visual rating after 10 days
# [25] = Test C, preemergence, 125 g ai/ha
smiles,measurement,setting,value
Cc1ccc(-n2cnc(C3(C)CC3)n2)cc1C(=O)N1C[C@H](C)Oc2c(Cl)cccc21 [Compound 252],"Plant response rating, Ragweed",ragweed [1]; [22],70
same,"Plant response rating, Ragweed",ragweed [1]; [23],80
same,"Plant response rating, Oat, Wild","oat, wild [2]; [22]",10
same,"Plant response rating, Oat, Wild","oat, wild [2]; [23]",10
same,"Plant response rating, Corn",corn [3]; [22],60
same,"Plant response rating, Corn",corn [3]; [23],80
same,"Plant response rating, Ducksalad (Flood)",ducksalad,15
same,"Plant response rating, Kochia",kochia [4]; [24],100
same,Kochia plant response rating,kochia [4]; [25],100
same,"Plant response rating, Ryegrass, Italian","ryegrass, Italian [5]; [24]",80
same,"Ryegrass, Italian plant response rating","ryegrass, Italian [5]; [25]",60
same,"Plant response rating, Blackgrass",blackgrass [6]; [22],80
same,"Plant response rating, Blackgrass",blackgrass [6]; [23],80
same,"Plant response rating, Horseweed",horseweed; [22],20
same,"Plant response rating, Horseweed",horseweed; [23],50
same,"Plant response rating, Barnyardgrass",barnyardgrass [7]; [22],60
same,"Plant response rating, Barnyardgrass",barnyardgrass [7]; [23],80
same,"Plant response rating, Sedge, Umbrella (Flood)","sedge, umbrella",15
same,"Plant response rating, Foxtail, Green",green foxtail; [24],100
same,"Foxtail, Green plant response rating",green foxtail; [25],100
same,"Plant response rating, Corn",corn [8]; [24],0
same,Corn plant response rating,corn [8]; [25],0
same,"Plant response rating, Pigweed, Palmer","pigweed, palmer [9]; [22]",90
same,"Plant response rating, Pigweed, Palmer","pigweed, palmer [9]; [23]",100
same,"Plant response rating, Galium",galium; [22],100
same,"Plant response rating, Galium",galium; [23],100
same,"Plant response rating, Soybean",soybean [10]; [22],100
same,"Plant response rating, Soybean",soybean [10]; [23],100
same,"Plant response rating, Soybean",soybean [11]; [24],80
same,Soybean plant response rating,soybean [11]; [25],20
same,"Plant response rating, Pigweed, Palmer","pigweed, palmer [12]; [24]",100
same,"Pigweed, Palmer plant response rating","pigweed, palmer [12]; [25]",100
same,"Plant response rating, Blackgrass",blackgrass [13]; [24],20
same,Blackgrass plant response rating,blackgrass [13]; [25],0
same,"Plant response rating, Wheat",wheat [14]; [24],10
same,Wheat plant response rating,wheat [14]; [25],0
same,"Plant response rating, Wheat",wheat [15]; [22],20
same,"Plant response rating, Wheat",wheat [15]; [23],30
same,"Plant response rating, Ryegrass, Italian","ryegrass, Italian [16]; [22]",80
same,"Plant response rating, Ryegrass, Italian","ryegrass, Italian [16]; [23]",80
same,"Plant response rating, Rice (Flood)",rice,0
same,"Plant response rating, Ragweed",ragweed [17]; [24],30
same,Ragweed plant response rating,ragweed [17]; [25],0
same,"Plant response rating, Kochia",kochia [18]; [22],90
same,"Plant response rating, Kochia",kochia [18]; [23],100
same,"Plant response rating, Oat, Wild","oat, wild [19]; [24]",70
same,"Oat, Wild plant response rating","oat, wild [19]; [25]",20
same,"Plant response rating, Barnyardgrass (Flood)",barnyardgrass [20],35
same,"Plant response rating, Barnyardgrass",barnyardgrass [21]; [24],90
same,Barnyardgrass plant response rating,barnyardgrass [21]; [25],80

# From US20260262643A1, “HERBICIDAL BENZOXAZINES” (FMC CORPORATION, priority 2022, published 2026)
